Source: patent US7759083B2, “Screening method for a growth inhibitor or promoter of a vascular smooth muscle cell” (Shionogi & Co., Ltd., priority 2004, dated 2010)

How the values were obtained:
[1] = system: TAT reactive rat vascular smooth muscle cell clones; assay: Cell proliferation potency by TAT after GPC3 knockdown with shRNA adenovirus ([methyl 3H] thymidine uptake); type: cell-based; settings: adenovirus infection at MOI=10; compared to cells infected GFPi or LacZ used as a control; FIG. 3
Method: Adenovirus carrying GFPi or GPC3i was added to cells on a 10 cm laboratory dish at infectious MOI=10 to infect. The cells were moved on a 24-well plate 1 day after infection and cultured under the absence of blood serum for 24 hours. After that, thymidine taken in cells by the stimulus of TAT was measured.
Each of adenovirus inserted shRNA of Glypican 3 (GPC3) (GPC3i), adenovirus inserted shRNA of Green fluorescent protein (GFP) (GFPi) and adenovirus not inserted shRNA (LacZ) was infected to TAT reactive rat vascular smooth muscle cell clones. Cell proliferation potency by TAT was measured by uptake of [methyl 3H] thymidine according an experiment method.

[2] = system: vascular smooth muscle cells; assay: Proliferation reaction of vascular smooth muscle cells by human TAT ([methyl 3H] thymidine uptake); type: cell-based, rat; settings: serum-free; only some (TAT reactive) vascular smooth muscle cells respond
Method: Vascular smooth muscle cells were plated in a 96-well plate at a density of 2×10^3/well and cultured under the same condition as Example 1. After 3 days, the medium was changed with DMEM containing 0.05% bovine serum albumin. After culturing for one more day, the medium was changed again with new DMEM containing 0.05% bovine serum albumin and TAT was added thereto. After 20 hours from addition of TAT, 0.05 μCi/well [methyl 3H] thymidine was added thereto and the cells were cultured for 2 hours. After washing cells twice with 5% trichloroacetic acid, Super mix (PerkinElmer, Inc.) was added thereto and radioactivity derived from [methyl 3H] thymidine taken in cells was measured by Micro Beta (PerkinEimer, Inc.) (FIG. 1).

Substance | cell proliferation by stimulus of TAT [1] | proliferation of vascular smooth muscle cells [2]
GPC3i: adenovirus inserted shRNA of Glypican 3 (GPC3), sequence SEQ ID: 2 (guide GAACTACACCAATGCCATGTT) | remarkably decreased | 
thrombin-antithrombin III complex [TAT] |  | proliferate some cells of vascular smooth muscle cells at very low concentration
